Measured values published in patent US20260325485A1, “COMPOSITIONS AND METHODS FOR TREATING PANCREATITIS” (The United States Government as represented by the …, priority 2022, published 2026).
No end group written: not given here.

Key:
mouse acinar cells = assay: Total cholesterol content of mouse acinar cells (ex vivo pancreatitis models or cholesterol chelator); assay type: cell-based; design: total cholesterol in acinar cells, physiologic doses: dose or concentration left out as unconfirmed
Experimental: (§1) FIGS. 8A-8M show derangement of cholesterol metabolism in experimental pancreatitis. Characteristics of cholesterol metabolism were measured, as detailed in FIGS. 4A-4R, in pancreas of WT mice subjected to pancreatitis induced with cerulein (CER-AP), L-arginine (Arg-AP), or CDE diet (CDE-AP) (A, B, and E-G); ex vivo pancreatitis induced in WT mouse (C and I-M) or human acinar cells (D) with 100 nM CCK (CCK-AP) or 1 mM carbachol; and isolated pancreatic mitochondria (H). (B) Cholesterol ester (CE) heatmap; each column represents an individual mouse. (F) IB analysis of the indicated proteins. (G) LAL activity was measured by a fluorogenic assay (n=6 mice per condition). (H) Cholesterol content was measured by enzymatic assay. (I-M) Filipin colocalization with indicated proteins was quantified as detailed in FIGS. 2A-2L. Each symbol in A, C-E, and H represents an individual mouse, or cell or mitochondria preparation (n=3-15 per condition). Each symbol in J, K, and M corresponds to 20-30 cells in a different field (n=10-20 fields from 3 cell preparations per condition). Values are mean±SEM. *P<0.05, **P<0.01, ***P<0.001 vs. the same parameter in control/untreated pancreas, acinar cells or isolated mitochondria. Significance was determined by 2-tailed Student's t test (B, E, H, J, K, and M) or 1-way ANOVA followed by Tukey's multiple comparison test (A, C, and D). Scale bars: 10 μm.
(§2) Parameters of cholesterol metabolism were measured in (A, B, E, F) pancreas of mice subjected to pancreatitis induced with cerulean (CER-AP), L-arginine (Arg-AP), or combination of EtOH+palmitoleic acid (EtOH+POA); and (C) ex-vivo models on mouse and human acinar cells treated for 1 h with 100 nM CCK, […] or 500 μM TLCS. In (A), each column in CE heatmap represents an individual mouse. (B, C) Total cholesterol content was measured with cholesterol assay kit (Abcam, ab65390). […] Each symbol corresponds to 20-30 cells in each of 8 high-expression (qPCR) of proteins regulating cholesterol synthesis (4 mice/group). (B-D) Each symbol represents an individual animal or cell preparation. (A-D, F) Values are mean±SE (*p<0.05, **p<0.01, ***p<0.001 vs saline or control). Signficance was determined by 2-tailed student's t test.
(§3) Ex vivo pancreatitis models were performed on mouse and human acinar cells, and human pancreas slices by incubation with supramaximal CCK (100 nM) or carbachol (1 mM), as described previously (80, 81).
Total cholesterol content was measured with Cholesterol Assay kit per manufacturer's instructions. Samples of mouse pancreas and liver, cell pellet homogenates, subcellular fractions, isolated mitochondria, and serum were diluted in the reaction buffer containing cholesterol probe and incubated at 37° C. for 1 h in the dark. To measure total cholesterol, the samples were subjected to digestion with cholesterol esterase. To measure non-esterified cholesterol, the esterase was omitted from the assay.
Fluorescence intensity (for cholesterol) and absorbance (for TAG) were measured in a Tecan microplate reader. Each measurement was in duplicate, and the values were normalized per mg total protein in the sample.

free cholesterol = assay: Filipin colocalization with organelle markers in ex vivo CCK-AP; assay type: cell-based, mouse; conditions: 100 nM CCK
Experimental: as §1, with “Each symbol in A, C-E, and H represents an individual mouse, or cell or mitochondria preparation (n=3-15 per condition). Each symbol in J, K, and M corresponds to 20-30 cells in a different field (n=10-20 fields from 3 cell preparations per condition). Values are mean±SEM. *P<0.05, **P<0.01, ***P<0.001 vs. the same parameter in control/untreated pancreas, acinar cells or isolated mitochondria.” left out, “Scale bars: 10 μm.” left out
All fluorescence images were acquired with a Zeiss LSM710 confocal microscope using x63 objective and preset within-experiment image acquisition settings. Quantitative fluorescence analysis was performed with Volocity software (PerkinElmer). Overlap between 2 fluorescent labels was measured using Manders-Costes coefficient. […]

human acinar cells = assay: Total cholesterol content of human acinar cells (ex vivo pancreatitis models); assay type: cell-based
Experimental: as §1, §2, §3
Human pancreas slices were obtained as in (12), from portions of live normal human pancreata from pre-terminal donors that were not used for transplantation and diverted to research (provided by Trillium Gift of Life Network, Toronto, Ontario, year 2020) or from normal portions of pancreatic cancer operations. Pancreas was cut into ~3×3×3 mm pieces and embedded with 37° C. low melting 3.8% agarose gel in extracellular solution containing (mM): 125 NaCl, 2.5 KCl, 1 MgCl2, 2 CaCl2, 1.25 NaH2PO4, 26 NaHCO3, 2 sodium pyruvate, 0.25 ascorbic acid, 3 myo-inositol, 6 lactic acid, and 7 glucose, and placed on ice to solidify the gel. The gelled tissue blocks were sliced with Vibratome into 120 μm-thick slices; slices were washed with the same extracellular solution, placed in 199 medium containing 0.1 mg/mL soybean trypsin inhibitor, and treated with CCK-8 (CCK) or carbachol for ex-vivo pancreatitis.
Total cholesterol content was measured with Cholesterol Assay kit per manufacturer's instructions. […]

[1] = ex-vivo pancreatitis, 1 h, 100 nM CCK, 1 mM carbachol or 500 μM TLCS
[2] = supramaximal (100 nM) CCK-8 or carbachol, ex vivo AP

## CCK: hormone cholecystokinin-8 (CCK) (DYMGWMDF; ends and bridges not checked; UniProt P06307 96-103, looked up)
Mouse acinar cells; [1]
  cholesterol overload, mouse acinar cells: prominent
Mouse acinar cells; physiologic doses of CCK or carbachol
  total cholesterol in acinar cells, physiologic doses: did not alter
Mouse acinar cells; [2]
  cholesterol content, mouse acinar cells, supramaximal stimulation: increased
Free cholesterol
  free cholesterol in Rab7-positive LE/Ly: accumulation
  plasma membrane free cholesterol (filipin colocalization with cadherin): markedly decreased
Human acinar cells; [1]
  cholesterol overload, human acinar cells: prominent
Human acinar cells; [2]
  cholesterol content, human acinar cells, supramaximal stimulation: increased
